Data as given in patent US12440481B2, “Esters and carbamates as modulators of sodium channels” (VERTEX PHARMACEUTICALS INCORPORATED, priority 2019, dated 2025).

target: human NaV 1.8 (Homo sapiens, UniProt Q9Y5Y9); test: E-VIPR Assay for Detecting and Measuring NaV Inhibition Properties; format: cell-based; conditions: HEK cells expressing a truncated form of human NaV 1.8; HS = human serum; read-out: EVIPR HS IC50
Description: E-VIPR Assay for Detecting and Measuring NaV Inhibition Properties
Sodium ion channels are voltage-dependent proteins that can be activated by inducing membrane voltage changes by applying electric fields. The electrical stimulation instrument and methods of use, referred to as E-VIPR, are described in International Publication No. WO 2002/008748 A3 and C.-J. Huang et al. Characterization of voltage-gated sodium channel blockers by electrical stimulation and fluorescence detection of membrane potential, 24 Nature Biotech. 439-46 (2006), both of which are incorporated by reference in their entirety. The instrument comprises a microtiter plate handler, an optical system for exciting the coumarin dye while simultaneously recording the coumarin and oxonol emissions, a waveform generator, a current- or voltage-controlled amplifier, and parallel electrode pairs that are inserted into assay plate wells. Under integrated computer control, this instrument passes user-programmed electrical stimulus protocols to cells within the wells of the microtiter plate.
16-20 hours prior to running the assay on E-VIPR, HEK cells expressing a truncated form of human NaV 1.8 with full channel activity were seeded into microtiter 384-well plates, pre-coated with matrigel, at a density of 25,000 cells per well. 2.5-5% KIR2.1 Bacmam virus was added to the final cell suspension before seeding into cell plates. HEK cells were grown in Dulbecco's Modified Eagle's Medium (DMEM) supplemented with 10% FBS (Fetal Bovine Serum, qualified; Sigma #F4135), 1% NEAA (Non-Essential Amino Acids, Gibco #11140), 1% HEPES (Gibco #15630), 1% Pen-Strep (Penicillin-Streptomycin; Gibco #15140) and 5 μg/ml Blasticidin (Gibco #R210-01). Cells were expanded in vented cap cell culture flasks, with 90-95% humidity and 5% CO2.
Reagents and Stock Solutions:
• 100 mg/mL Pluronic F-127 (Sigma #P2443), in dry DMSO • Compound Plates: Corning 384-well Polypropylene Round Bottom #3656 • Cell Plates: 384-well tissue culture treated plates (Greiner #781091-1B) • 2.5-5% KIR 2.1 Bacmam virus (produced in-house), prepared as described in Section 3.3 of J. A. Fornwald et al., Gene Expression in Mammalian Cells Using BacMam, a Modified Baculovirus System, 1350 Methods in Molecular Biology 95-116 (2016), the entire contents of which are incorporated by reference. The concentration used can be dependent on viral titer of each batch. • 5 mM DiSBAC6 (3), a voltage sensitive oxonol acceptor (CAS number 169211-44-3; 5-[3-(1,3-dihexylhexahydro-4,6-dioxo-2-thioxo-5-pyrimidinyl)-2-propen-1-ylidene]-1,3-dihexyldihydro-2-thioxo-4,6(1H,5H)-pyrimidinedione), in dry DMSO. The preparation of DiSBAC6 (3) is analogous to that of DiSBAC4 (3) as described in Voltage Sensing by Fluorescence Resonance Energy Transfer in Single Cells, Gonzalez, J. E. and Tsien, R. Y. (1995) Biophys. J. 69, 1272-1280. • 5 mM CC2-DMPE, a commercially available membrane-bound coumarin phospholipid FRET donor (ThermoFisher Scientific catalog number K1017, CAS number 393782-57-5; tetradecanoic acid, 1,1′-[(1R)-1-[8-(6-chloro-7-hydroxy-2-oxo-2H-1-benzopyran-3-yl)-3-hydroxy-3-oxido-8-oxo-2,4-dioxa-7-aza-3-phosphaoct-1-yl]-1,2-ethanediyl] ester) was prepared in dry DMSO. […]

Sequence of human NaV 1.8 (Q9Y5Y9 whole entry, looked up, the tested form may be a part): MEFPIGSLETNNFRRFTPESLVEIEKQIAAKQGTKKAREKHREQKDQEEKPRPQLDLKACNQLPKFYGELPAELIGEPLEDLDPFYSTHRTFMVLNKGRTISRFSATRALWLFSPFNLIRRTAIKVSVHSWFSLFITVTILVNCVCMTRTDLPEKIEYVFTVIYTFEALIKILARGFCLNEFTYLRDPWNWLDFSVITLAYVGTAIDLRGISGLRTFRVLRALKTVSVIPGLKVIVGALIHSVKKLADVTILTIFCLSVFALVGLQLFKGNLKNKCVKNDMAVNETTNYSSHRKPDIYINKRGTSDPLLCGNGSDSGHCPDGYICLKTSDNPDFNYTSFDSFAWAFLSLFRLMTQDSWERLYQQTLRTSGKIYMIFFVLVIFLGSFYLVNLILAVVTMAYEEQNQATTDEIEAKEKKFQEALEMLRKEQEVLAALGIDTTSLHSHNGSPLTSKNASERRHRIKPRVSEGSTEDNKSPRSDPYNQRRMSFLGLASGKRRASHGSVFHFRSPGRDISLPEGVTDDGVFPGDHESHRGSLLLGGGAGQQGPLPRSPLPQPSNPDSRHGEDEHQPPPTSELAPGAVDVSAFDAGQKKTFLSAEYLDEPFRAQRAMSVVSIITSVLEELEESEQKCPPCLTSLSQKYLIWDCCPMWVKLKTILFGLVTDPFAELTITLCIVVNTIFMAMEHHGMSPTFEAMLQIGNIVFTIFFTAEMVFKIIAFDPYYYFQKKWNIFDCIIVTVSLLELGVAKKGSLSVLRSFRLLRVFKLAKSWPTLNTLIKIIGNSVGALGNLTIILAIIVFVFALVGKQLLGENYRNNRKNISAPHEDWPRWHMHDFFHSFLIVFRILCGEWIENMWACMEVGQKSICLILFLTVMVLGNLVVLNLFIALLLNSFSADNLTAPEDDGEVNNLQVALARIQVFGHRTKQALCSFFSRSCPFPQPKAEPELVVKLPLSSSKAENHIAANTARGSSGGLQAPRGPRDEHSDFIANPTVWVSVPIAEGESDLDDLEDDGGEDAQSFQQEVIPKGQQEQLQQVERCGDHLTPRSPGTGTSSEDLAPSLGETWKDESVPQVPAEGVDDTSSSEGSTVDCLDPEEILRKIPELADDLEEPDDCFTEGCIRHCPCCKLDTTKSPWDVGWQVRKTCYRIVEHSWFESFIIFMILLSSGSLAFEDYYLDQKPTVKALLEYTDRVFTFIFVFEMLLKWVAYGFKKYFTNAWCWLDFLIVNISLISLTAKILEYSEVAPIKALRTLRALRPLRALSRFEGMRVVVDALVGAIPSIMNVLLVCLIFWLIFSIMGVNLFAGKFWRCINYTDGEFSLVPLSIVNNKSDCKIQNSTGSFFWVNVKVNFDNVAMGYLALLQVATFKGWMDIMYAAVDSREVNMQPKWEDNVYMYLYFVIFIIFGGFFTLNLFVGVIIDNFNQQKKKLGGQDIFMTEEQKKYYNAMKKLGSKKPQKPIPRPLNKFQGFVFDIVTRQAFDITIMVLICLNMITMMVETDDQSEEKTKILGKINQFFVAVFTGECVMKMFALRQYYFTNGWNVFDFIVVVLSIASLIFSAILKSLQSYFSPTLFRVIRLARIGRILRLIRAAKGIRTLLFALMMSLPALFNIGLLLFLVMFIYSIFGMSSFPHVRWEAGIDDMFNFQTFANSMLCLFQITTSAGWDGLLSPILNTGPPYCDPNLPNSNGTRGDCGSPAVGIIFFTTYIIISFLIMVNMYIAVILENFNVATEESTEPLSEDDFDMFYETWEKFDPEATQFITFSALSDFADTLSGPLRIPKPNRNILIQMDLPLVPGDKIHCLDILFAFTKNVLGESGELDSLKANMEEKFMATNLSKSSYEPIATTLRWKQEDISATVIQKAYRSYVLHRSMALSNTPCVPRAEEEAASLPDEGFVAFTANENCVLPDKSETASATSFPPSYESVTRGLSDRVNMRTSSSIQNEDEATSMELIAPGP

SMILES | IC50
[2H]C([2H])([2H])Oc1cc(OC(F)(F)F)ccc1Oc1cc(C(F)(F)F)c(F)cc1C(=O)Nc1ccc(C(=O)OC)nc1 [Compound 1, Methyl 5-[[5-fluoro-2-[2-(trideuteriomethoxy)-4-(trifluoromethoxy)phenoxy]-4-(trifluoromethyl)benzoyl]amino]pyridine-2-carboxylate] | ≥ 1000 nM
COC(=O)c1cc(NC(=O)c2c(Oc3ccc(OC(F)(F)F)cc3OC)ccc(C3CC3)c2C)c(C)cn1 [Compound 2, methyl 4-[[3-cyclopropyl-6-[2-methoxy-4-(trifluoromethoxy)phenoxy]-2-methyl-benzoyl]amino]-5-methyl-pyridine-2-carboxylate] | 100 to 500 nM
COC(=O)c1cc(NC(=O)c2c(Oc3ccc(OC(F)(F)F)cc3)ccc(C(F)(F)F)c2F)ccn1 [Compound 3, methyl 4-[[2-fluoro-6-[4-(trifluoromethoxy)phenoxy]-3-(trifluoromethyl)benzoyl]amino]pyridine-2-carboxylate] | 100 to 500 nM
[2H]C([2H])([2H])Oc1cc(OC(F)(F)F)ccc1Oc1cc(C(F)(F)F)c(F)cc1C(=O)Nc1ccnc(C(=O)OC)c1 [Compound 6, methyl 4-[[5-fluoro-2-[2-(trideuteriomethoxy)-4-(trifluoromethoxy)phenoxy]-4-(trifluoromethyl)benzoyl]amino]pyridine-2-carboxylate] | 100 to 500 nM
[2H]C([2H])([2H])Oc1cc(OC(F)(F)F)ccc1Oc1cc(C(F)(F)F)c(F)cc1C(=O)Nc1ccnc(NC(=O)OC(C)(C)C)c1 [Compound 7, tert-butyl N-[4-[[5-fluoro-2-[2-(trideuteriomethoxy)-4-(trifluoromethoxy)phenoxy]-4-(trifluoromethyl)benzoyl]amino]-2-pyridyl]carbamate] | ≥ 1000 nM
[2H]C([2H])([2H])Oc1cc(OC(F)(F)F)ccc1Oc1ccc(C(F)(F)F)cc1C(=O)Nc1ccnc(C(=O)OC)c1 [Compound 8, methyl 4-[[2-[2-(trideuteriomethoxy)-4-(trifluoromethoxy)phenoxy]-5-(trifluoromethyl)benzoyl]amino]pyridine-2-carboxylate] | 500 to 1000 nM
[2H]C([2H])([2H])Oc1cc(OC(F)(F)F)ccc1Oc1ccc(C(F)(F)F)cc1C(=O)Nc1ccnc(NC(=O)OC(C)(C)C)c1 [Compound 9, tert-butyl N-[4-[[2-[2-(trideuteriomethoxy)-4-(trifluoromethoxy)phenoxy]-5-(trifluoromethyl)benzoyl]amino]-2-pyridyl]carbamate] | ≥ 1000 nM
COC(=O)c1ccc(NC(=O)c2c(Oc3ccc(F)cc3OC)ccc(C(F)(F)F)c2F)cn1 [Compound 10, methyl 5-[[2-fluoro-6-(4-fluoro-2-methoxy-phenoxy)-3-(trifluoromethyl)benzoyl]amino]pyridine-2-carboxylate] | ≥ 1000 nM
[2H]C([2H])([2H])Oc1cc(OC(F)(F)F)ccc1Oc1ccc(C(F)(F)F)c(F)c1C(=O)Nc1ccc(C(=O)OC)nc1 [Compound 11, methyl 5-[[2-fluoro-6-[2-(trideuteriomethoxy)-4-(trifluoromethoxy)phenoxy]-3-(trifluoromethyl)benzoyl]amino]pyridine-2-carboxylate] | 100 to 500 nM
[2H]C([2H])([2H])Oc1cc(OC(F)(F)F)ccc1Oc1ccc(C(F)(F)F)cc1C(=O)Nc1ccc(C(=O)OC)nc1 [Compound 12, methyl 5-[[2-[2-(trideuteriomethoxy)-4-(trifluoromethoxy)phenoxy]-5-(trifluoromethyl)benzoyl]amino]pyridine-2-carboxylate] | ≥ 1000 nM
COC(=O)c1ccc(NC(=O)c2c(Oc3ccc(OC(F)(F)F)cc3)ccc(C(F)(F)F)c2F)cn1 [Compound 13, methyl 5-[[2-fluoro-6-[4-(trifluoromethoxy)phenoxy]-3-(trifluoromethyl)benzoyl]amino]pyridine-2-carboxylate] | ≥ 1000 nM
COC(=O)c1ccc(NC(=O)c2c(Oc3ccc(OC(F)(F)F)c(F)c3OC)ccc(C(F)(F)F)c2F)cn1 [Compound 14, Methyl 5-[[2-fluoro-6-[3-fluoro-2-methoxy-4-(trifluoromethoxy)phenoxy]-3-(trifluoromethyl)benzoyl]amino]pyridine-2-carboxylate] | 100 to 500 nM
COC(=O)c1ccc(NC(=O)c2c(Oc3ccc(OC(F)(F)F)cc3OC)ccc(C(F)(F)F)c2F)cn1 [Compound 15, Methyl 5-[[2-fluoro-6-[2-methoxy-4-(trifluoromethoxy)phenoxy]-3-(trifluoromethyl)benzoyl]amino]pyridine-2-carboxylate] | 100 to 500 nM
COC(=O)c1cc(NC(=O)c2c(Oc3ccc(OC(F)(F)F)c(F)c3C)ccc(C(F)(F)F)c2C)c(C)cn1 [Compound 16, Methyl 4-[[6-[3-fluoro-2-methyl-4-(trifluoromethoxy)phenoxy]-2-methyl-3-(trifluoromethyl)benzoyl]amino]-5-methyl-pyridine-2-carboxylate] | < 100 nM
COC(=O)c1cc(NC(=O)c2c(Oc3ccc(OC(F)(F)F)c(F)c3C)ccc(C(F)(F)F)c2F)c(C)cn1 [Compound 17, Methyl 4-[[2-fluoro-6-[3-fluoro-2-methyl-4-(trifluoromethoxy)phenoxy]-3-(trifluoromethyl)benzoyl]amino]-5-methyl-pyridine-2-carboxylate] | < 100 nM
COC(=O)c1cc(NC(=O)c2c(Oc3ccc(F)c(F)c3C)ccc(C(F)(F)F)c2C)c(C)cn1 [Compound 18, Methyl 4-[[6-(3,4-difluoro-2-methyl-phenoxy)-2-methyl-3-(trifluoromethyl)benzoyl]amino]-5-methyl-pyridine-2-carboxylate] | 500 to 1000 nM
COC(=O)c1nccc(NC(=O)c2c(Oc3ccc(F)c(F)c3C)ccc(C(F)(F)F)c2C)c1C [Compound 19, Methyl 4-[[6-(3,4-difluoro-2-methyl-phenoxy)-2-methyl-3-(trifluoromethyl)benzoyl]amino]-3-methyl-pyridine-2-carboxylate] | ≥ 1000 nM
COC(=O)c1cc(NC(=O)c2c(Oc3ccc(OC(F)(F)F)c(F)c3Cl)ccc(C(F)(F)F)c2F)c(C)cn1 [Compound 20, Methyl 4-[[6-[2-chloro-3-fluoro-4-(trifluoromethoxy)phenoxy]-2-fluoro-3-(trifluoromethyl)benzoyl]amino]-5-methyl-pyridine-2-carboxylate] | < 100 nM
COC(=O)c1nccc(NC(=O)c2c(Oc3ccc(OC(F)(F)F)cc3OC)ccc(C(F)(F)F)c2F)c1C [Compound 21, Methyl 4-[[2-fluoro-6-[2-methoxy-4-(trifluoromethoxy)phenoxy]-3-(trifluoromethyl)benzoyl]amino]-3-methyl-pyridine-2-carboxylate] | ≥ 1000 nM
COC(=O)c1cc(NC(=O)c2c(Oc3ccc(OC(F)(F)F)cc3Cl)ccc(C3CC3)c2C)c(C)cn1 [Compound 22, Methyl 4-[[6-[2-chloro-4-(trifluoromethoxy)phenoxy]-3-cyclopropyl-2-methyl-benzoyl]amino]-5-methyl-pyridine-2-carboxylate] | ≥ 1000 nM
COC(=O)c1ccnc(NC(=O)c2c(Oc3ccc(OC(F)(F)F)c(F)c3OC)ccc(C(F)(F)F)c2F)c1 [Compound 23, Methyl 2-[[2-fluoro-6-[3-fluoro-2-methoxy-4-(trifluoromethoxy)phenoxy]-3-(trifluoromethyl)benzoyl]amino]pyridine-4-carboxylate] | 500 to 1000 nM
